Reference: article PMC11887370, “The universal accumulation of p-aminophenol during the microbial degradation of analgesic and antipyretic acetaminophen in WWTPs: a novel metagenomic perspective” (Microbiome, 2025)

B1: AAA (bacterium CSBL00001) (protein)
chain: MGKSHSPVHWKSAAEIVELVKSKQISPREVVESTIDLIEQRDPGLNAVVYKAYDEAREKAAALERRIMQGEPVGMLAGVPTLMKDLFAAKPGWPSTLGGIRALKDARGAAGVWSTYPLKMSGEDSLLLGQTNSPVYGFRGTTDNTFFGPTRNPFNLDFNAGGSSGGAAALVADGIVPVAGGTDGGGSIRIPAAWTNTYGFQPSIGRVPFKSRPNAFHPGPYLYEGPITRTVRDAALAMNVLHGFDRRDPASLRVKLDFTSALAQGVRGKKIGLTLNYGVFPVQQEIQDLIGKAARVFTELGAHVEFVDLGIPYSQKQMSDAWCRMIAIPTVASMQALRKEGIDLYGEHRADIPDALMKWIDAVADISVQQISADQLLRTTVFDCMNGVFDRFDLLLAPTLACMPVRNATDGCTEGPSQINGEEIDPLIGWCMTYLTNFSGHPSASVPAGLIDGLPAGMLIIGDRQADLDVIAASAAFERASPWSQYYDIPAGRPL
notes: His6-tagged, plasmid pET-aaa (pET-28a(+)), expressed in E. coli BL21(DE3), Ni-NTA purified

Columns and labels:
Test in all cases: UV-vis spectrophotometric hydrolysis assay, Michaelis-Menten fit
ApaA = test system: T1, ApaA; assay type: biochemical, Rhodococcus sp. NyZ502; details: 100 mM phosphate buffer pH 7.4; 30 °C
T1 construct: His6-tagged, plasmid pTIP-apaA (pTIPQC1), expressed in Rhodococcus erythropolis L88, Ni-NTA purified

[1] = substrate: CC(=O)Nc1ccc(O)cc1; assay type: biochemical, bacterium CSBL00001; details: 100 mM phosphate buffer pH 7.4, 30 °C
[2] = substrate: CC(=O)Nc1ccc([N+](=O)[O-])cc1; assay type: biochemical, bacterium CSBL00001; details: 100 mM phosphate buffer pH 7.4, 30 °C

Molecule | Km (ApaA) [µM] | Km [1] [µM] | Km [2] [µM] | kcat [2] [s⁻¹]
CC(=O)Nc1ccc([N+](=O)[O-])cc1 [4-nitroacetanilide] | 26.6 ± 4.21 |  |  | 
CC(=O)Nc1ccccc1 [acetanilide] | 30.2 ± 3.86 |  |  | 
CC(=O)Nc1ccc(O)cc1 [Acetaminophen] | 8.96 |  |  | 
B1 |  | 22.13 | 16.82 ± 5.55 | 5.65 ± 0.54
